According to ChEMBL document CHEMBL5303573, “Mapping human microbiome drug metabolism by gut bacteria and their genes” (Nature, 2019):

Assays:
Type in all cases: ADME
Design in all cases: dose 2 uM
Details in all cases: 2 µM
[1] = molecular target: T1, Acetyl esterase (Acetylxylosidase) (Bacteroides thetaiotaomicron, UniProt Q8ABF8); assay: (§1) The drug is tested on Bacteroides thetaiotaomicron strain: VPI-5482 for biotransformation. The drug concentrations were measured before and after a 12-h incubation by liquid-chromatography-coupled mass spectrometry (LC–MS)
T1 sequence (Q8ABF8 whole entry): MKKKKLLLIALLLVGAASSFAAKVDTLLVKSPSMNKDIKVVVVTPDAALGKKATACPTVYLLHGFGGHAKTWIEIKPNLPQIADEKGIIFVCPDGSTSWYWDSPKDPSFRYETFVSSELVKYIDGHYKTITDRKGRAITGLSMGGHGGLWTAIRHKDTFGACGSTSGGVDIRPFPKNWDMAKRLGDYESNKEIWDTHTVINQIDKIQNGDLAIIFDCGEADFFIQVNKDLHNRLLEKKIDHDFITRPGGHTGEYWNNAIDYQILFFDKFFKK

[2] = molecular target: T2, 3-oxo-5-alpha-steroid 4-dehydrogenase (Bacteroides thetaiotaomicron, UniProt Q8A618); assay: as §1
T2 sequence (Q8A618 whole entry): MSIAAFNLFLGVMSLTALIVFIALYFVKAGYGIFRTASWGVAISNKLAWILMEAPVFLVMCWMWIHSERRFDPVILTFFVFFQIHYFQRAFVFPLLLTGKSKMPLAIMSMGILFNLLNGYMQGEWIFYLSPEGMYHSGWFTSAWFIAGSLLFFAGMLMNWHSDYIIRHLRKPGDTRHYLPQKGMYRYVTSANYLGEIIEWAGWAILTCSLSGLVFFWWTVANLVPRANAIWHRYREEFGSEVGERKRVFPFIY

[3] = molecular target: T3, Lipolytic enzyme, G-D-S-L family (Bacteroides thetaiotaomicron, UniProt Q8A0E6); assay: as §1
T3 sequence (Q8A0E6 whole entry): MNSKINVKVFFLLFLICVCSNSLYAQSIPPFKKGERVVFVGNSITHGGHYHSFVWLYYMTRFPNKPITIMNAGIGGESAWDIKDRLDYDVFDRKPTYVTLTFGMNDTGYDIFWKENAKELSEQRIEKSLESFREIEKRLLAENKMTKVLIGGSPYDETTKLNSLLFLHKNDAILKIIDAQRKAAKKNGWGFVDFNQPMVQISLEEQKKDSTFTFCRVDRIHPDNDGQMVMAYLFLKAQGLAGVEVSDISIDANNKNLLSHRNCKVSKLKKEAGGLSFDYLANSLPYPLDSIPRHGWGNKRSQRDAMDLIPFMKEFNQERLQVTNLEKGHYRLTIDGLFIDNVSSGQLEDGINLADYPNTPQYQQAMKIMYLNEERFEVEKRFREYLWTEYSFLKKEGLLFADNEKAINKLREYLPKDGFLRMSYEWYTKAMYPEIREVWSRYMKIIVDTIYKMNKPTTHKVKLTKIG

[4] = molecular target: T4, Lipoprotein (Bacteroides thetaiotaomicron, UniProt Q8A343); assay: as §1
T4 sequence (Q8A343 whole entry): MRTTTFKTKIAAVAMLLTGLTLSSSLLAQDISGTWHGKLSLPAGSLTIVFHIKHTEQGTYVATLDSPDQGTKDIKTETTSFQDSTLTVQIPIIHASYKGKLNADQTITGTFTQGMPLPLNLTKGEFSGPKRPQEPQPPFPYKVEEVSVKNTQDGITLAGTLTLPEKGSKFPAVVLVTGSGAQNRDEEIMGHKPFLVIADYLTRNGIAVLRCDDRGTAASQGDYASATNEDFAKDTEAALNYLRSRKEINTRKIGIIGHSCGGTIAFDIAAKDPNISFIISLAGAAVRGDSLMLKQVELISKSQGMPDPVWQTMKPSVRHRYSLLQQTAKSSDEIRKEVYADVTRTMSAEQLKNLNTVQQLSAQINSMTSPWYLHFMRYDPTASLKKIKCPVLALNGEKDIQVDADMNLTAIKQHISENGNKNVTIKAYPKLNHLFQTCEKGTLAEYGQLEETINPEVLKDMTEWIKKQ

[5] = molecular target: T5, Nitroreductase-like protein (Bacteroides thetaiotaomicron, UniProt Q8AB93); assay: as §1
T5 sequence (Q8AB93 whole entry): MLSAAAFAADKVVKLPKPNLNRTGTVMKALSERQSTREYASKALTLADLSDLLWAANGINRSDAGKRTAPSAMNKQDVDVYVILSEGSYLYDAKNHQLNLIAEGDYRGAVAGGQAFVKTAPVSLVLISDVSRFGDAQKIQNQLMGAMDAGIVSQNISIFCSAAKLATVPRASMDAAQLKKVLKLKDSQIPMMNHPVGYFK

[6] = molecular target: T6, Sialic acid-specific acetylesterase (Bacteroides thetaiotaomicron, UniProt Q8A331); assay: as §1
T6 sequence (Q8A331 whole entry): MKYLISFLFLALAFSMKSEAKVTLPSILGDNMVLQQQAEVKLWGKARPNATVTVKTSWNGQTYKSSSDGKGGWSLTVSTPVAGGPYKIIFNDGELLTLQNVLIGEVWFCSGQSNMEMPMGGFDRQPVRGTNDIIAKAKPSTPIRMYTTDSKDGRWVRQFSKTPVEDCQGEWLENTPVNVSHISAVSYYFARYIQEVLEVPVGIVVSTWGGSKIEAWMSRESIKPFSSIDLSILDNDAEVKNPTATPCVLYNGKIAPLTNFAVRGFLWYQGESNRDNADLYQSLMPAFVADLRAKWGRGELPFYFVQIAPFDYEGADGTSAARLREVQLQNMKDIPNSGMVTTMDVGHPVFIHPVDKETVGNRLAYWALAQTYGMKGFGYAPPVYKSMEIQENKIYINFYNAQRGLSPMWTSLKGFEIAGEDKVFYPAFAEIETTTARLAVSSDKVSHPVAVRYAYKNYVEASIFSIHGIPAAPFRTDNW

[7] = molecular target: General stress protein (Bacteroides thetaiotaomicron, UniProt Q8A7U5); assay: as §1
[8] = molecular target: T7, Xylanase (Bacteroides thetaiotaomicron, UniProt Q8A8H5); assay: as §1
T7 sequence (Q8A8H5 whole entry): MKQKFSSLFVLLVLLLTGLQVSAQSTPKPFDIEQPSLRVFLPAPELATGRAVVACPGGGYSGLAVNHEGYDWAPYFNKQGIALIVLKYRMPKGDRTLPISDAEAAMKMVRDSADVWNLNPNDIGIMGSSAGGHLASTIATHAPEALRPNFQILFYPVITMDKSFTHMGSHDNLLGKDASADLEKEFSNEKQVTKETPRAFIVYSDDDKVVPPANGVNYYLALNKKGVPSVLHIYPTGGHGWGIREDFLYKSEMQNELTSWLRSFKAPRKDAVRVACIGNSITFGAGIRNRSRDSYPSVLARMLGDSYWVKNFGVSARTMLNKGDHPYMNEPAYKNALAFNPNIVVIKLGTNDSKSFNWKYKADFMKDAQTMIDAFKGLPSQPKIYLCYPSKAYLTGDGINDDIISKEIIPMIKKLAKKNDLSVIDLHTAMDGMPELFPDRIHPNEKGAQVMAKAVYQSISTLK

Measured: Bacterial Biotransformation

Chain of General stress protein (Q8A7U5 1-138, change not shown): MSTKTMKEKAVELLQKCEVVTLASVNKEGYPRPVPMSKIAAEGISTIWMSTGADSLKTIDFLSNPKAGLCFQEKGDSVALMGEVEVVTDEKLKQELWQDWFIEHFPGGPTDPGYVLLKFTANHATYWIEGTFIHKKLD

C[C@]12CCC(=O)C=C1[C@@H]1C[C@@H]1[C@H]1[C@@H]3[C@@H]4C[C@@H]4[C@@]4(CCC(=O)O4)[C@@]3(C)CC[C@@H]12 [DROSPIRENONE]
Compound NOT metabolized: [1] | [2] | [3] | [4] | [5] | [6] | [7] | [8]
